We go through 28 compounds from ChEMBL document CHEMBL2163292, “1,2,3-Triazole-containing uracil derivatives with excellent pharmacokinetics as a novel class of potent human deoxyuridine triphosphatase inhibitors” (J Med Chem, 2012).

Series [1] is described as follows: Cytotoxicity against human HeLaS3 cells incubated for 72 hrs by crystal violet assay. The class given is functional, cell-based. The note with it: HeLa S3, 72 h.
In series [2] the target is T1, Deoxyuridine 5'-triphosphate nucleotidohydrolase, mitochondrial (Homo sapiens, UniProt P33316).
T1 sequence (P33316 whole entry): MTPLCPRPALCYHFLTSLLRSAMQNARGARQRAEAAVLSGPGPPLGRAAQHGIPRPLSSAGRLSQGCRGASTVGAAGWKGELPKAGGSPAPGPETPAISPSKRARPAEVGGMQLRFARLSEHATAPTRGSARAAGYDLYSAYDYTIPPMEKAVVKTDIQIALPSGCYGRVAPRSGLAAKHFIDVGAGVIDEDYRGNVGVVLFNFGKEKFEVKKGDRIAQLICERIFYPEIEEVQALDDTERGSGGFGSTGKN
The experiment in a line: Inhibition of human dUTPase assessed as reduction in [5-3H]dUMP production incubated for 15 mins by HPLC.

The nature of series [3]: Half life in Balb/cA mouse at 50 mg/kg, po administered as single dose by reverse-phase ultra performance liquid chromatography. It counts as ADME, organism-based. Further details: dose 50 mg/kg, route oral. The following applies: in vivo.
Series [4] relates to Mus musculus. The experiment in a line: Metabolic stability in Balb/cA mouse assessed as metabolite formation at 50 mg/kg, po administered as single dose measured after 0.5 hrs by reverse-phase ultra performance liquid chromatography. It counts as ADME, organism-based. The following applies: in vivo. Further details: dose 50 mg/kg, route oral.
A short description of series [5]: AUC (0 to t) in Balb/cA mouse at 50 mg/kg, po administered as single dose by reverse-phase ultra performance liquid chromatography. Further details: dose 50 mg/kg, route oral. It counts as ADME, organism-based. The following applies: plasma.
A short description of series [6]: Cmax in Balb/cA mouse at 50 mg/kg, po administered as single dose by reverse-phase ultra performance liquid chromatography. It counts as ADME, organism-based. More on the design: dose 50 mg/kg, route oral. The note with it: in vivo.
Series [7] is described as follows: Tmax in Balb/cA mouse at 50 mg/kg, po administered as single dose by reverse-phase ultra performance liquid chromatography. Further details: dose 50 mg/kg, route oral. The note with it: in vivo. The class given is ADME, organism-based.
The test system of series [8] is MX1. The series is described as follows: Antitumor activity against human MX1 cells xenografted in Balb/cA JcL-nu mouse assessed as tumor growth inhibition at 300 mg/kg/day, po for 14 days and measured twice a week relative to untreated control. The class given is functional. The following applies: MX1, 336 h. Background: A xenograft is tissue or cells of one species grown in another, often human tumour cells in immunodeficient mice.

Series [9] has as its system MX1. The series is described as follows: Potentiation of 5-FU induced antitumour activity against human MX1 cells xenografted in Balb/cA JcL-nu mouse assessed as tumor growth inhibition at 300 mg/kg/day, po for 14 days co-treated with 5-FU at 15 mg/kg/day for 14 days and measured twice weekly relative to untreated control. The class given is functional.
Series [10] relates to Mus musculus. The experiment in a line: Toxicity in Balb/cA JcL-nu mouse xenografted with human MX1 cells assessed as body weight loss at 300 mg/kg/day, po for 14 days co-treated with 5-FU at 15 mg/kg/day for 14 days and measured twice a week relative to untreated control. The following applies: in vivo, 336 h. It counts as organism-based.
The test system of series [11] is MX1. The experiment in a line: Antitumor activity against human MX1 cells xenografted in Balb/cA JcL-nu mouse assessed as tumor growth inhibition at 15 mg/kg/day, […] as continuous infusion using osmotic pump and measured twice a week relative to untreated control. The class given is functional.

A word on the EC50: it is the concentration giving half of the maximal effect. What is called IC50 is the concentration needed to halve the response being measured. Usually half-life stands for how long it takes for the measured level to halve. A lower half-life goes with fast loss. By AUC(0-t) is commonly meant the area under the concentration-time curve up to a stated or last time point. Read a high AUC(0-t) as high exposure. A word on the Cmax: it is the highest concentration seen after dosing. One may read the Tmax as the time at which the peak concentration occurs. The inhibition in vivo is the change of the read-out against control, counted positive when it falls.

The compound `O=c1ccn(CCCCc2cnnn2CCc2cccc(OCC3CC3)c2)c(=O)[nH]1` showed an EC50 in series [1] of 84 µM. Further, the IC50 in series [2] came to 210 nM. As for `C[C@@H](Cn1nncc1CCCCn1ccc(=O)[nH]c1=O)c1cccc(OCC2CC2)c1`, in series [2], the half-inhibitory concentration (IC50) amounted to 58 nM. `C[C@H](Cn1nncc1CCCCn1ccc(=O)[nH]c1=O)c1cccc(OCC2CC2)c1`: in series [2], the IC50 turned out to be 870 nM. Turning to `CC[C@@H](Cn1nncc1CCCCn1ccc(=O)[nH]c1=O)c1cccc(OCC2CC2)c1`, the half-life in series [3] is 30 min. Besides, the EC50 in series [1] was found to be 22 µM. The IC50 in series [2] was 29 nM. In [4], the Stability entry is on record as “Unstable”. In addition, the exposure AUC(0-t) in [5] was found to be 4.56 µM·h. The same compound yielded a peak concentration (Cmax) in series [6] of 8.69 µM. The Tmax in series [7] is 30 min.

Take `CC[C@H](Cn1nncc1CCCCn1ccc(=O)[nH]c1=O)c1cccc(OCC2CC2)c1`: the IC50 in [2] was determined as 720 nM. Compound `CC[C@@](O)(Cn1nncc1CCCCn1ccc(=O)[nH]c1=O)c1cccc(OCC2CC2)c1` gave a half-life in [3] of 60 min. Moreover, the IC50 in series [2] stood at 150 nM. Moreover, the AUC(0-t) in [5] came to 67.4 µM·h. Further, the maximum concentration (Cmax) in [6] came out at 62.1 µM. The Tmax in series [7] turned out to be 30 min. For the compound `CC[C@@](O)(Cn1nncc1CCCCn1ccc(=O)[nH]c1=O)c1cccc(OC2CCCC2)c1`, the IC50 in [2] turned out to be 210 nM.

Take `CCOc1cccc([C@@](O)(CC)Cn2nncc2CCCCn2ccc(=O)[nH]c2=O)c1`: the IC50 in [2] was greater than 1000 nM. In the case of `CC[C@@](O)(Cn1nncc1CCCCn1ccc(=O)[nH]c1=O)c1cccc(OCC2(C)CC2)c1`, the IC50 in [2] is 630 nM. As for `CC[C@@](O)(Cn1nncc1CCCCn1ccc(=O)[nH]c1=O)c1cccc(OCC(C)C)c1`, the IC50 in series [2] was found to be 550 nM.

For `C=CCOc1cccc([C@@](O)(CC)Cn2nncc2CCCCn2ccc(=O)[nH]c2=O)c1`, in series [2], the IC50 was found to be 360 nM.

Turning to `CC[C@@](O)(Cn1nncc1CCCCn1ccc(=O)[nH]c1=O)c1cccc(OC2CCOCC2)c1`, the IC50 in series [2] is greater than 1000 nM. Consider `CC[C@@](O)(Cn1nncc1CCCCn1ccc(=O)[nH]c1=O)c1cccc(OCC2CCC2)c1`, for which the IC50 in [2] turned out to be 150 nM.

Regarding `CC[C@](O)(Cn1nncc1CCCCn1ccc(=O)[nH]c1=O)c1cccc(OCC2CC2)c1`, the IC50 in [2] is greater than 1000 nM.

Regarding `CC[C@@](O)(Cn1nncc1CCOCn1ccc(=O)[nH]c1=O)c1cccc(OCC2CC2)c1`, the IC50 in series [2] was 170 nM. For `CC[C@@](O)(Cn1nncc1CCCCn1ccc(=O)[nH]c1=O)c1ccc(F)c(OCC2CC2)c1`, the inhibition in vivo at 300 mg/kg/day in series [8] is -23.2%. Further, the half-life in series [3] was 60 min. In series [1], this compound came in with an EC50 of 41 µM. Also, the IC50 in [2] was found to be 67 nM. Further, the Stability entry in series [4] is “Stable”. The compound further displayed an exposure AUC(0-t) in series [5] of 57.3 µM·h. In addition, the “inhibition (INH)” value in series [9] was 84.9%. The compound further had a Cmax in series [6] of 49.8 µM. Besides, in series [10], the Activity entry is reported as “Non-toxic”. Further, the time of peak concentration (Tmax) in [7] stood at 60 min.

Take `CC[C@](O)(Cn1nncc1CCCCn1ccc(=O)[nH]c1=O)c1ccc(F)c(OCC2CC2)c1`: the IC50 in [2] stood at 350 nM. For `O=c1ccn(CCCc2cnnn2CC(c2ccccc2)c2ccccc2)c(=O)[nH]1`, the EC50 in [1] is greater than 100 µM. For the same compound, in series [2], the half-maximal inhibitory concentration (IC50) was 1300 nM.

Turning to `O=c1ccn(CCCCc2cnnn2CC(c2ccccc2)c2ccccc2)c(=O)[nH]1`, in [2], the half-inhibitory concentration (IC50) was 740 nM. As to `O=c1ccn(CCCc2cnnn2C(c2ccccc2)c2ccccc2)c(=O)[nH]1`, in [2], the IC50 was greater than 10000 nM. Same read-out and setting: under `O=c1ccn(CCCCc2cnnn2C(c2ccccc2)c2ccccc2)c(=O)[nH]1` stands 1600 nM; under `O=c1ccn(CCCc2cnnn2CCc2ccccc2)c(=O)[nH]1`, greater than 10000 nM; under `O=c1ccn(CCCCc2cnnn2CCc2ccccc2)c(=O)[nH]1`, 3500 nM. On to `COc1ccccc1CCn1nncc1CCCCn1ccc(=O)[nH]c1=O`, for which the IC50 in [2] turned out to be 5700 nM. `COc1cccc(CCn2nncc2CCCCn2ccc(=O)[nH]c2=O)c1`: the IC50 in [2] stood at 4100 nM. `COc1ccc(CCn2nncc2CCCCn2ccc(=O)[nH]c2=O)cc1`: the IC50 in series [2] was greater than 10000 nM. On to `O=c1ccn(CCCCc2cnnn2CCc2ccccc2OCC2CC2)c(=O)[nH]1`, for which, in [2], the IC50 came out at 390 nM. Take `O=c1[nH]cc(F)c(=O)[nH]1` [FLUOROURACIL]: the inhibition in vivo at 15 mg/kg/day in series [11] came out at 20%.
